The record followed here is PubChem BioAssay AID1996.

≈ marks a conversion by molar mass, not a printed value.

The conditions of this series: buffer; pH 7.4; 200.0 µM.
Turning to `Cc1nc2ccccc2c(=O)n1-c1ccc(-c2ccccc2)cc1`, the solubility (kinetic) (in general, solubility judged after dilution from a stock solution rather than from solid) is below 0.3 µg/mL.

The compound `Cc1ccccc1NC(=S)NC(=O)COc1ccccc1C` yielded a solubility (kinetic) of 1.1 µg/mL (≈ 3.5 µM). On to `COc1ccc(C(C)NC(=O)Cc2cccs2)cc1OC` (centres undefined), for which the solubility (kinetic) is above 45.8 µg/mL. Take `O=C(O)c1cccc(NC(=S)NCc2ccccc2)c1`: the solubility (kinetic) was above 43 µg/mL. For `CC(C)CCNC1c2ccccc2C(=O)N1Cc1ccccc1.Cl` (centres undefined), the solubility (kinetic) turned out to be 6.2 µg/mL. On to `CCOc1ccc(NC(=O)COC(=O)c2ccc(S(=O)(=O)N3CCOCC3)cc2)cc1`, for which the kinetic solubility was 25.9 µg/mL (≈ 57.7 µM). For `COc1ccc(C(=O)O)cc1S(=O)(=O)NCCN(C)C` the value was 44.1 µg/mL (≈ 146 µM); for `CC1CCC(NC(=O)c2cc(Cl)nc3ccccc23)CC1` (centres undefined), 2.5 µg/mL (≈ 8.26 µM). As for `O=c1onc(-c2c(F)cccc2F)n1-c1ccccc1Cl`, the solubility (kinetic) amounted to 1 µg/mL (≈ 3.24 µM). For `COc1ccc(C(=O)NC2CCCc3ccccc32)c(OC)c1OC` (centres undefined) the value was 41.9 µg/mL (≈ 123 µM). In turn, `COc1ccc(NC(=O)CCS(=O)(=O)c2ccc(Cl)cc2)cc1` had a kinetic solubility of 18.4 µg/mL (≈ 52 µM). Consider `O=c1[nH]c(=S)[nH]c2nc(-c3ccccc3)cnc12`, for which the solubility (kinetic) is above 38.4 µg/mL. For `O=C(OCC(=O)c1ccc[nH]1)c1ccc([N+](=O)[O-])cc1` the value was 13.3 µg/mL (≈ 48.5 µM); for `CNC(=S)N1CCc2cc(OC)c(OC)cc2C1`, above 40 µg/mL; for `CCC1CCCCN1C(=O)CSc1nc2ncccc2[nH]1` (centres undefined), above 45.7 µg/mL. For `O=C(NC1CCN(Cc2ccccc2)CC1)c1ccccc1`, the solubility (kinetic) was above 44.2 µg/mL. Regarding `Cc1ccc(S(=O)(=O)N2CCN(c3ccccc3)CC2)cc1`, the solubility (kinetic) is below 0.3 µg/mL.

For `CCOC(=O)C1CCN(C(=O)Nc2cc(Cl)cc(Cl)c2)CC1`, the solubility (kinetic) came out at 20.4 µg/mL (≈ 59.1 µM). For `O=C(O)c1ccccc1-n1cccc1C(=O)O` the value was above 34.7 µg/mL; for `COc1ccccc1OCCn1c(=O)oc2ccc(C)cc21`, 4.2 µg/mL (≈ 14 µM); for `O=C(Cc1ccccc1)NCCc1c[nH]c2ccccc12.O=C(O)C(=O)O`, 47.8 µg/mL. For `O=C(O)c1ccccc1C(=O)Nc1nc(-c2ccc3ccccc3c2)cs1` the value was above 56.2 µg/mL; for `CC(=O)N1CCN(C(=O)COC(=O)c2ccc(S(C)(=O)=O)cc2)CC1`, above 55.3 µg/mL. For the compound `COc1ccc(C(=O)NCc2ccc3c(c2)cc(C)n3C)cc1OC`, the kinetic solubility came out at 4.7 µg/mL (≈ 13.9 µM). The result for `CCC1CCCCN1C(=O)CSc1nc(N)cc(=O)[nH]1` (centres undefined) reads 42.2 µg/mL (≈ 142 µM).

`COc1ccc(CCC(=O)OCC(=O)NCc2ccccc2)cc1`: the solubility (kinetic) is above 49.1 µg/mL.

Compound `COC(=O)c1c(NC(=O)C(C)(C)C)csc1C` registered a solubility (kinetic) of 18.1 µg/mL (≈ 70.9 µM).

For the compound `Cc1noc(C)c1C(=O)NCc1ccccc1Br`, the solubility (kinetic) worked out at 44.6 µg/mL (≈ 144 µM). For `Cc1nc2ccc(NC(=O)c3ccc(=O)[nH]c3)cc2s1` the value was 13.7 µg/mL (≈ 48 µM); for `Cc1c(C(=O)NC(C)c2ccccn2)oc2c(Cl)cccc12` (centres undefined), 24.4 µg/mL (≈ 77.5 µM); for `Cc1cc(C)c(OCCCON2C(=O)CCC2=O)c(Br)c1`, above 53.4 µg/mL. For `COc1ccc(CCNC(=O)CNC(=O)c2ccco2)cc1` the value was above 45.3 µg/mL; for `CSCCC1NC(=O)N(CC(=O)Nc2cc(C)on2)C1=O` (centres undefined), above 46.9 µg/mL; for `COc1ccc(NS(=O)(=O)c2ccc(O)c([N+](=O)[O-])c2)cc1S(=O)(=O)N1CCCCC1`, above 70.7 µg/mL.

For `C=CCN1C(=O)CSC1=Nc1ccc(NC(C)=O)cc1`, the solubility (kinetic) was found to be 42 µg/mL (≈ 145 µM). The result for `Cc1cccc(NC(=O)CC2(CC(=O)O)CCCC2)c1` reads 41.2 µg/mL (≈ 150 µM); that for `CCCCC(=O)Nc1cc([N+](=O)[O-])ccc1F`, 31.8 µg/mL (≈ 132 µM); that for `CCCOC(=O)Cn1cnc2scc(-c3ccc(C)cc3)c2c1=O`, 17.2 µg/mL (≈ 50.2 µM). On to `Cc1cc2oc(=O)cc(CN3CCCCC3)c2cc1C`, for which the solubility (kinetic) was below 0.6 µg/mL.

In turn, `O=C(/C=C/c1cccc(F)c1)N1CCN(c2ccccn2)CC1` displayed a solubility (kinetic) of 39.4 µg/mL (≈ 127 µM). In turn, `N#C/C(=C\c1ccncc1)c1nc2ccccc2o1` showed a solubility (kinetic) of 12.9 µg/mL (≈ 52.2 µM). For `CC(=O)N1CCN(CC(=O)Nc2ccc(C#N)c(Cl)c2)CC1` the value was above 48.1 µg/mL; for `Cc1ccc(C(=O)NCCCNC(=O)c2ccco2)cc1`, above 42.9 µg/mL; for `Cc1cc(C)c(NC(=O)COC(=O)C2CCCCC2)c(C)c1`, 5.6 µg/mL (≈ 18.5 µM). The compound `CCCOc1cc(C)c(S(=O)(=O)NCc2cccs2)cc1C` registered a solubility (kinetic) of 9.1 µg/mL (≈ 26.8 µM).

The compound `CN(CCOc1ccc(Cl)cc1)C(=O)C1=CC=CN2CCS(=O)(=O)N=C12` gave a solubility (kinetic) above 59.4 µg/mL. `O=C(Nc1ccc(F)cc1)C1CCN(C(=O)c2ccc(F)cc2)CC1` gave a solubility (kinetic) above 51.7 µg/mL. For `Clc1ccc2nc(-c3ccccc3)nc(C(Cl)Cl)c2c1` the value was below 0.3 µg/mL; for `O=S(=O)(Nc1ccon1)c1ccc(Br)s1`, 31.3 µg/mL (≈ 101 µM).

`CCN1CCN(C(=O)/C=C/c2ccc(C(C)C)cc2)CC1`: the kinetic solubility is above 43 µg/mL. Regarding `COc1cccc(NC(=O)C2C3C=CC(C3)C2C(=O)O)c1` (centres undefined), the kinetic solubility was found to be 27.1 µg/mL (≈ 94.3 µM).

Compound `CCCCSc1nc2sc3c(c2c(=O)[nH]1)CC(C)(CC)OC3` (centres undefined) showed a solubility (kinetic) of 0.5 µg/mL (≈ 1.48 µM). For the compound `CC(C)N1CC(COc2ccc(Br)cc2)OC1=O` (centres undefined), the solubility (kinetic) was 45.1 µg/mL (≈ 144 µM). In turn, `CCc1cc(SC#N)cc(C)c1N` returned a solubility (kinetic) of 25.6 µg/mL (≈ 133 µM). For `COc1ccc(C(C)NC(=O)CCc2ccccc2)cc1` (centres undefined) the value was 40.8 µg/mL (≈ 144 µM); for `c1ccc(COc2ccccc2CNC2CCCC2)cc1`, 38.5 µg/mL (≈ 137 µM). As for `CCCCNC(=O)C1CCC(=O)N1CCc1ccccc1` (centres undefined), the kinetic solubility came out at 42.4 µg/mL (≈ 147 µM). Regarding `COc1cccc(NC(=O)CC2Oc3ccccc3NC2=O)c1` (centres undefined), the kinetic solubility came to 6.7 µg/mL (≈ 21.5 µM). The result for `Cn1cccc1/C=C1\SC(=Nc2cccc(O)c2)NC1=O` reads 5.6 µg/mL (≈ 18.7 µM); that for `CCN(Cc1ccncc1)C(=O)c1ccc(C)c(S(=O)(=O)N2CCCCC2)c1`, above 60.2 µg/mL. In turn, `CCc1noc(N)c1C(=O)Nc1ccc(Cl)cc1` returned a solubility (kinetic) above 39.9 µg/mL. For `O=C(CSc1nnc2ccccn12)NNC(=O)c1cccc(Cl)c1` the value was above 54.3 µg/mL; for `COc1ccc(NC(=O)N2CCCCCC2)c(OC)c1`, above 41.8 µg/mL; for `Cc1ccsc1/C=N/Nc1ncnc2nc[nH]c12`, above 38.7 µg/mL. In turn, `Cc1ccc(NCCC(=O)c2ccccc2)cc1Cl` registered a kinetic solubility below 0.6 µg/mL.

The compound `CC1(C)CC(=O)C(C=NCCN2CCN(C(=O)CCl)CC2)=C(O)C1` displayed a solubility (kinetic) above 53.4 µg/mL. Take `CCc1ccc(OCC(=O)Nc2ccc3oc(=O)ccc3c2)cc1`: the kinetic solubility amounted to 1.5 µg/mL (≈ 4.64 µM). For `CCOc1ncccc1C(=O)OCC(=O)c1ccc(OC)c(OC)c1` the value was above 51.8 µg/mL; for `O=C(Nc1ccc(Cl)cc1)/C(=C1\CCCN1)[N+](=O)[O-]`, 1 µg/mL (≈ 3.55 µM); for `COc1cccc(OC)c1/C=C/C(=O)NC1CCCCC1`, 5.8 µg/mL (≈ 20 µM). The result for `CC1(C)C2CCC1(C)C(OCCNCCOC(=O)Nc1ccccc1)C2` (centres undefined) reads 10.2 µg/mL (≈ 28.3 µM); that for `O=C(NC1CCN(Cc2ccccc2)CC1)c1ccc2c(c1)OCCCO2`, 51.6 µg/mL (≈ 141 µM). Take `Cc1ccc(C(=O)OCC(=O)NC2CCCCC2)s1`: the solubility (kinetic) was above 42.2 µg/mL. In the case of `CN1C(=O)C(=Cc2cccnc2)C(=O)N(C)C1=O`, the kinetic solubility turned out to be 32.3 µg/mL (≈ 132 µM).

With `COc1cnc(-c2cccc(C(F)(F)F)c2)nc1OC`, the solubility (kinetic) is below 0.3 µg/mL. The result for `COc1ccc(C2(C)NC(=O)N(CC(=O)NC3CC3)C2=O)cc1` (centres undefined) reads 43.3 µg/mL (≈ 136 µM). With `O=C(COC(=O)c1cccc(Br)c1)NCCC1=CCCCC1`, the kinetic solubility is 2.5 µg/mL (≈ 6.83 µM). Compound `Cc1cc(C(=O)CCl)c(C)n1Cc1ccco1` had a kinetic solubility above 37.8 µg/mL. The result for `COc1ccccc1CC(=O)N1CCOCC1` reads 34.6 µg/mL (≈ 147 µM); that for `CC(CCc1ccccc1)NC(=O)CN(C)Cc1ccccc1F` (centres undefined), 48.4 µg/mL (≈ 147 µM); that for `Cc1cccc(C)c1NC(=O)c1ccc2c(c1)CCN2S(C)(=O)=O`, 8.3 µg/mL (≈ 24.1 µM).

`CC1=CC2=NC(=O)/C(=C/c3cccs3)C(=N)N2O1` showed a solubility (kinetic) of 2.8 µg/mL (≈ 10.8 µM). As for `O=C(NCc1cccnc1)Nc1cc(Cl)cc(Cl)c1`, the solubility (kinetic) was determined as 15.2 µg/mL (≈ 51.3 µM). The compound `Cc1cccc(Cn2nc(C(C)(C)C)cc2C(=O)N2CCOCC2)c1` displayed a solubility (kinetic) above 51.2 µg/mL. Take `Cc1ccc(SCc2nc3ncccn3c2Br)cc1`: the solubility (kinetic) is above 50.1 µg/mL. Compound `N#Cc1ccc(Oc2ncccn2)cc1` came in with a kinetic solubility above 29.6 µg/mL. Regarding `O=C(CN1C(=O)c2ccccc2S1(=O)=O)Nc1cccc(S(=O)(=O)N2CCCCC2)c1`, the kinetic solubility is 34.4 µg/mL (≈ 74.2 µM). For `COC(=O)c1sccc1NC(=S)Nc1ccc(F)cc1F` the value was 42 µg/mL (≈ 128 µM); for `CCCC1C2C(=O)N(c3cccc(C)c3)C(=O)C2ON1c1ccccc1` (centres undefined), 51.1 µg/mL (≈ 146 µM).

Regarding `NS(=O)(=O)c1ccc(Sc2nc3ccccc3s2)c([N+](=O)[O-])c1`, the solubility (kinetic) amounted to 1.7 µg/mL (≈ 4.63 µM). For the compound `COc1ccc(C(=O)Nc2ccc(Cl)c(S(=O)(=O)N3CCOCC3)c2)cc1`, the kinetic solubility worked out at 2.9 µg/mL (≈ 7.06 µM). For `CC(NS(=O)(=O)c1ccc([N+](=O)[O-])cc1)C(=O)NN` (centres undefined) the value was above 43.2 µg/mL. Compound `Cc1ccc(S(=O)(=O)n2cnc(C)c2)cc1` yielded a solubility (kinetic) above 35.4 µg/mL. The result for `Cc1cccc(N2CN(S(=O)(=O)c3cccc([N+](=O)[O-])c3)c3nc4ccccc4nc32)c1` reads 0.7 µg/mL (≈ 1.56 µM); that for `O=C(c1ccccc1CCc1ccccc1)N1CCCC1`, 40.5 µg/mL (≈ 145 µM); that for `CCNC(=O)COc1cc(C)c(Br)c(C)c1`, above 42.9 µg/mL.

As to `O=C(Nc1ccc2c(c1)OCO2)c1ccccn1`, the kinetic solubility worked out at 31.4 µg/mL (≈ 130 µM). In turn, `CC1CCC2(CC1)NC(=O)N(CC(=O)Nc1ccc(C(N)=O)cc1)C2=O` (centres undefined) returned a solubility (kinetic) above 53.8 µg/mL. The result for `COc1ccc(NC(=O)c2cc3ccccc3oc2=O)c(OC)c1` reads below 0.7 µg/mL; that for `CC(=O)C1=NOC2C(=O)N(c3ccccc3)C(=O)C12` (centres undefined), above 38.7 µg/mL; that for `COc1ccc(C)cc1NC(=S)Nc1ccccc1SC`, 10.5 µg/mL (≈ 33 µM). The compound `Brc1nc(-c2ccccc2)nc(-c2ccccc2)c1Br` had a solubility (kinetic) below 0.4 µg/mL. The result for `Br.c1ccc(NC2=NCCCS2)cc1` reads above 41 µg/mL; that for `CN(C)C(=O)NC1c2ccccc2-c2ccccc21`, above 37.8 µg/mL.
